Measured values published in patent US8653074B2, “Substituted sodium 1H-pyrazol-5-olate” (Bayer Intellectual Property GmbH, priority 2010, dated 2014).

Key:
[1] = Vapour adsorption and vapour desorption (moisture sorption isotherm); assay type: physicochemical; details: customary environmental conditions (20-35° C., atmospheric pressure)
[2] = as above; assay type: physicochemical; details: for Adsorption / Desorption: 25° C.
Method: Vapour Adsorption and Vapour Desorption:
The moisture sorption isotherm was recorded using a Dynamic Vapour Sorption Analyzer IGA Sorp from Hiden Analytical. The measuring temperature was 25° C. There was no sample preparation.

[3] = biological target: T1, EGLN2/PHD1 (Homo sapiens, UniProt Q96KS0); assay: Inhibition of the activity of HIF prolyl hydroxylase (VBC complex binding test); assay type: biochemical; details: mean for EGLN2/PHD1
T1 construct: host or cells: cell lysate
T1 sequence (Q96KS0 whole entry): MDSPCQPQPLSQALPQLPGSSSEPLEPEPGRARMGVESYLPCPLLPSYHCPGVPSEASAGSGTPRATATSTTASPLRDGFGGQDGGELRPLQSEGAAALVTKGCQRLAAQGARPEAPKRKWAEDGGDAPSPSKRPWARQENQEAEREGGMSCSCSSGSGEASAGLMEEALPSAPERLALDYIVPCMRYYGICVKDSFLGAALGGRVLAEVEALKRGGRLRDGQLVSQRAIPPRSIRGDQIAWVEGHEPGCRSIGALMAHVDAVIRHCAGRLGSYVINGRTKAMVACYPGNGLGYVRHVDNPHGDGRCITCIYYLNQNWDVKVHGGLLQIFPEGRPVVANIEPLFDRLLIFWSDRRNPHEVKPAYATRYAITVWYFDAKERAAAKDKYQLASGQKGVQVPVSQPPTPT
Method: The test is carried out as described [Oehme F., Jonghaus W., Narouz-Ott L., Huetter J., Flamme I., Anal. Biochem. 330 (1), 74-80 (2004)]:
A clear 96-well microtiter plate coated with NeutrAvidin HBC (Pierce) is incubated with blocker casein for 30 minutes. The plate is then washed three times with 200 μl each time of wash buffer (50 mM Tris, pH 7.5, 100 mM NaCl, 10% (v/v) blocker casein, 0.05% (v/v) Tween 20) per well. The peptide biotin-[sequence] (Eurogentec, 4102 Seraing, Belgium) is added in a concentration of 400 nM in 100 μl wash buffer. This peptide serves as a substrate for the prolyl hydroxylation and is bonded to the microtiter plate. After incubation for 60 minutes, the plate is washed three times with wash buffer, incubated with 1 mM biotin in blocker casein for 30 minutes and then washed again three times with wash buffer.
To carry out the prolyl hydroxylase reaction, the peptide substrate bonded to the plate is incubated with a cell lysate containing prolyl hydroxylase for 1 to 60 minutes. […]

[4] = biological target: EGLN1/PHD2 (Homo sapiens, UniProt Q9GZT9); assay: biochemical
EGLN1/PHD2, sequence (Q9GZT9 whole entry): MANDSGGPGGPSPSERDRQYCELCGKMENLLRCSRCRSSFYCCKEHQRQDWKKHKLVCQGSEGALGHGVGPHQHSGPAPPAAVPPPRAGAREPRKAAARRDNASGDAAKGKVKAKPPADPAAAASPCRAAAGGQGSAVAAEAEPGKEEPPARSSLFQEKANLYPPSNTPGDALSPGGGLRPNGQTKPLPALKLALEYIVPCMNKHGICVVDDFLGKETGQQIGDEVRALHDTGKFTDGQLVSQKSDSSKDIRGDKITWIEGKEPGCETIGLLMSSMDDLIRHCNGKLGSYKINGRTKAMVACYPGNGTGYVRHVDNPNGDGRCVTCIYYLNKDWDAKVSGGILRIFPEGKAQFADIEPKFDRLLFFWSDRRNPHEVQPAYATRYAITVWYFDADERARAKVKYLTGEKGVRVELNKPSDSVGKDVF
Method: Hydroxylated HIF bonds specifically to the von Hippel-Lindau protein-elongin B-elongin C complex (VBC complex). This interaction occurs only if HIF is hydroxylated on a conserved prolyl radical. It is the basis for the biochemical determination of HIF prolyl hydroxylase activity.
A clear 96-well microtiter plate coated with NeutrAvidin HBC (Pierce) is incubated with blocker casein for 30 minutes. The plate is then washed three times with 200 μl each time of wash buffer (50 mM Tris, pH 7.5, 100 mM NaCl, 10% (v/v) blocker casein, 0.05% (v/v) Tween 20) per well. […] This peptide serves as a substrate for the prolyl hydroxylation and is bonded to the microtiter plate. After incubation for 60 minutes, the plate is washed three times with wash buffer, incubated with 1 mM biotin in blocker casein for 30 minutes and then washed again three times with wash buffer. […]
For quantitative determination of the prolyl hydroxylation, a fusion protein which contains both thioredoxin from E. coli and the VBC complex in 80 μl bonding buffer (50 mM Tris, pH 7.5, 120 mM NaCl) is added. […] The amount of bonded VBC complex is determined by measurement of the optical density at 450 nm. […]
Alternatively, a VBC complex coupled to europium (Perkin Elmer) can be used for detection of the prolyl hydroxylation. In this case, the amount of bonded VBC complex is determined by the fluorescence with respect to time.

[5] = Solubility in water; assay type: physicochemical; details: for solubility thermodynamic at 16 h: thermodynamic from solid, water, 25° C., stirred 16 hours, HPLC
Method: Method: Saturated solutions of the test substance were prepared by stirring a suspension in water at 25° C. for 16 hours. The suspensions obtained were then filtered, and the content in the filtrate was determined by HPLC.

[6] = system: recombinant A549 cell line with luciferase reporter under hypoxia-responsible elements; assay: Cellular, functional in vitro test (luciferase reporter under hypoxia-responsible elements); assay type: cell-based; details: Homo sapiens
From the text: 1.b) Cellular, Functional in vitro Test:
The activity of the compounds according to the invention is quantified with the aid of a recombinant cell line. The cell is originally derived from a human lung carcinoma cell line (A549, ATCC: American Type Culture Collection, Manassas, Va. 20108, USA). The test cell line is transfected in a stable manner with a vector which contains the reporter gene of Photinus pyralis luciferase (called luciferase in the following) under the control of an artificial minimal promoter. […] Under the effect of hypoxia (e.g. culturing in the presence of 1% oxygen for 24 hours) or under the action of non-selective dioxygenase inhibitors (e.g. desferroxamine in a concentration of 100 μM, cobalt chloride in a concentration of 100 μM or N-oxalylglycine diethyl ester in a concentration of 1 mM), the test cell line produces luciferase, which can be detected and quantified with the aid of suitable bioluminescence reagents (e.g. Steady-Glo® Luciferase Assay System, Promega Corporation, Madison, Wis. 53711, USA) and a suitable luminometer.
On the day before the test, the cells are plated out in an exactly calculated amount of culture medium (DMEM, 10% FCS, 2 mM glutamine) in 384- or 1,536-well microtiter plates and kept in a cell incubator (96% atmospheric humidity, 5% v/v CO2, 37° C.). […]

Row | SMILES | hygroscopicity [1] | Adsorption ([2]; 0% rh) [%] | Adsorption ([2]; 10% rh) [%] | Desorption ([2]; 10% rh) [%] | Adsorption ([2]; 20% rh) [%] | Desorption ([2]; 20% rh) [%] | Adsorption ([2]; 30% rh) [%] | Desorption ([2]; 30% rh) [%] | Adsorption ([2]; 40% rh) [%] | Desorption ([2]; 40% rh) [%] | Adsorption ([2]; 50% rh) [%] | Desorption ([2]; 50% rh) [%] | Adsorption ([2]; 60% rh) [%] | Desorption ([2]; 60% rh) [%] | Adsorption ([2]; 70% rh) [%] | Desorption ([2]; 70% rh) [%] | Adsorption ([2]; 80% rh) [%] | Desorption ([2]; 80% rh) [%] | Adsorption ([2]; 90% rh) [%] | Desorption ([2]; 90% rh) [%] | also measured
1 | [Na+].[O-]c1c(-n2ccnn2)cnn1-c1cc(N2CCOCC2)ncn1 [Compound of the formula (II), sodium 1-[6-(morpholin-4-yl)pyrimidin-4-yl]-4-(1H-1,2,3-triazol-1-yl)-1H-pyrazol-5-olate] | not hygroscopic | 0 | 0 | 0 | 0.1 | 0 | 0.1 | 0.1 | 0.2 | 0.2 | 0.2 | 0.3 | 0.2 | 0.3 | 0.4 | 0.4 | 0.4 | 0.5 | 0.8 | 0.8 | water content [2]: less than 0.5 % by weight; Desorption ([2]; 0% rh): 0%; change of water content ([2]; 20-35° C., atmospheric pressure, atmospheric humidity of up to 90% rh): less than 0.5 % by weight; IC50 [3]: 470 nM; IC50 [4]: 140 nM; solubility in water compared to the compound of the formula (I) [5]: higher solubility in water; solubility thermodynamic at 16 h [5]: 28 mg/mL; EC50 [6]: 7 nM
2 | Oc1c(-n2ccnn2)cnn1-c1cc(N2CCOCC2)ncn1 [Compound of the formula (I), 1-[6-(morpholin-4-yl)pyrimidin-4-yl]-4-(1H-1,2,3-triazol-1-yl)-1H-pyrazol-5-ol, reference compound] | hygroscopic | 0.1 | 0.2 | 0.1 | 0.3 | 0.2 | 4.8 | 4.7 | 5.1 | 5.2 | 5.3 | 5.4 | 5.4 | 5.6 | 5.6 | 5.6 | 5.7 | 5.7 | 5.9 | 5.9 | Desorption ([2]; 5% rh (printed in the 0% rh line)): 0.1% (5% rh); uptake of water ([2]; 20-35° C., atmospheric pressure, relative atmospheric humidity above 20% rh): up to 6 % by weight; solubility thermodynamic at 16 h [5]: 0.143 mg/mL
